HELM strings list units from the 5' end as sugar, base in round brackets, then linkage (d deoxyribose, r ribose, m 2'-O-methyl, p phosphodiester). Strings are as the collection lists them; they lack the last nucleoside at the 3' end of the tested compound. [moe] = 2'-O-(2-methoxyethyl) (MOE); [sp] = phosphorothioate linkage; [m5C] = 5-methylcytosine
target: APP; experiment: mouse, dose not given; conditions: ASO

Row | Substance | 3 h FOB score [score 0-7]
1 | RNA1{[moe](G)[sp].[moe](T)p.[moe](A)p.[moe]([m5C])p.[moe](T)[sp].d([m5C])[sp].d(A)[sp].d(T)[sp].d(T)[sp].d(T)[sp].d(T)[sp].d(T)[sp].d(G)[sp].d(T)[sp].d(T)[sp].[moe]([m5C])p.[moe](T)p.[moe](T)[sp].[moe](A)}$$$$ (last 3' nucleoside missing) | 0.67
2 | RNA1{[moe](G)[sp].[moe](T)p.[moe](G)p.[moe](A)p.[moe](T)[sp].d(T)[sp].d(T)[sp].d([m5C])[sp].d(A)[sp].d([m5C])[sp].d(T)[sp].d(A)[sp].d(A)[sp].d([m5C])[sp].d([m5C])[sp].[moe](G)p.[moe](G)p.[moe]([m5C])[sp].[moe](A)}$$$$ (last 3' nucleoside missing) | 2
3 | RNA1{[moe](G)[sp].[moe](T)p.[moe](G)p.[moe](A)p.[moe]([m5C])[sp].d(T)[sp].d(T)[sp].d(A)[sp].d(T)[sp].d(A)[sp].d([m5C])[sp].d(T)[sp].d([m5C])[sp].d(A)[sp].d(A)[sp].[moe](T)p.[moe](G)p.[moe](A)[sp].[moe]([m5C])}$$$$ (last 3' nucleoside missing) | 0
4 | RNA1{[moe](G)[sp].[moe](T)p.[moe](G)p.[moe](T)p.[moe]([m5C])[sp].d(A)[sp].d(T)[sp].d(A)[sp].d(A)[sp].d([m5C])[sp].d(A)[sp].d(T)[sp].d(T)[sp].d(T)[sp].d(A)[sp].[moe]([m5C])p.[moe](T)p.[moe]([m5C])[sp].[moe](A)}$$$$ (last 3' nucleoside missing) | 0
5 | RNA1{[moe](G)[sp].[moe](T)p.[moe](G)p.[moe]([m5C])p.[moe](T)[sp].d(T)[sp].d(A)[sp].d(T)[sp].d(A)[sp].d(A)[sp].d([m5C])[sp].d(T)[sp].d([m5C])[sp].d(T)[sp].d([m5C])[sp].[moe](A)p.[moe](T)p.[moe](A)[sp].[moe]([m5C])}$$$$ (last 3' nucleoside missing) | 1
6 | RNA1{[moe](G)[sp].[moe](T)p.[moe](T)p.[moe](G)p.[moe](A)[sp].d(A)[sp].d(T)[sp].d(T)[sp].d(T)[sp].d([m5C])[sp].d(T)[sp].d(T)[sp].d(A)[sp].d([m5C])[sp].d(A)[sp].[moe]([m5C])p.[moe](T)p.[moe](T)[sp].[moe](T)}$$$$ (last 3' nucleoside missing) | 0
7 | RNA1{[moe](G)[sp].[moe](T)p.[moe](T)p.[moe](G)p.[moe](T)[sp].d(A)[sp].d(G)[sp].d(G)[sp].d(A)[sp].d(A)[sp].d([m5C])[sp].d(T)[sp].d([m5C])[sp].d(G)[sp].d(A)[sp].[moe](A)p.[moe]([m5C])p.[moe]([m5C])[sp].[moe](A)}$$$$ (last 3' nucleoside missing) | 1
8 | RNA1{[moe](G)[sp].[moe](T)p.[moe](T)p.[moe](T)p.[moe](A)[sp].d([m5C])[sp].d([m5C])[sp].d(T)[sp].d(T)[sp].d(T)[sp].d(A)[sp].d(A)[sp].d([m5C])[sp].d(A)[sp].d(T)[sp].[moe](T)p.[moe]([m5C])p.[moe]([m5C])[sp].[moe](T)}$$$$ (last 3' nucleoside missing) | 0
9 | RNA1{[moe](G)[sp].[moe](T)p.[moe](T)p.[moe](T)p.[moe](A)p.[moe]([m5C])[sp].d([m5C])[sp].d(T)[sp].d(T)[sp].d(T)[sp].d(A)[sp].d(A)[sp].d([m5C])[sp].d(A)[sp].d(T)[sp].d(T)[sp].[moe]([m5C])p.[moe]([m5C])[sp].[moe](T)}$$$$ (last 3' nucleoside missing) | 2.75
10 | RNA1{[moe](G)[sp].[moe](T)p.[moe](T)p.[moe](T)p.[moe]([m5C])[sp].d(A)[sp].d(G)[sp].d(T)[sp].d(A)[sp].d(T)[sp].d(A)[sp].d(T)[sp].d(T)[sp].d([m5C])[sp].d(T)[sp].[moe]([m5C])p.[moe](T)p.[moe](G)[sp].[moe]([m5C])}$$$$ (last 3' nucleoside missing) | 0
11 | RNA1{[moe](G)[sp].[moe](T)p.[moe](T)p.[moe](T)p.[moe]([m5C])[sp].d(G)[sp].d([m5C])[sp].d(A)[sp].d(A)[sp].d(A)[sp].d([m5C])[sp].d(A)[sp].d(T)[sp].d([m5C])[sp].d([m5C])[sp].[moe](A)p.[moe](T)p.[moe]([m5C])[sp].[moe]([m5C])}$$$$ (last 3' nucleoside missing) | 0.5
12 | RNA1{[moe](G)[sp].[moe](T)p.[moe](T)p.[moe]([m5C])p.[moe](A)[sp].d([m5C])[sp].d(A)[sp].d(G)[sp].d(T)[sp].d(T)[sp].d(T)[sp].d(A)[sp].d([m5C])[sp].d([m5C])[sp].d([m5C])[sp].[moe]([m5C])p.[moe](A)p.[moe](A)[sp].[moe](G)}$$$$ (last 3' nucleoside missing) | 3.25
13 | RNA1{[moe](G)[sp].[moe](T)p.[moe](T)p.[moe]([m5C])p.[moe](A)p.[moe]([m5C])[sp].d(A)[sp].d(G)[sp].d(T)[sp].d(T)[sp].d(T)[sp].d(A)[sp].d([m5C])[sp].d([m5C])[sp].d([m5C])[sp].d([m5C])[sp].[moe](A)p.[moe](A)[sp].[moe](G)}$$$$ (last 3' nucleoside missing) | 0
14 | RNA1{[moe](G)[sp].[moe](T)p.[moe](T)p.[moe]([m5C])p.[moe]([m5C])[sp].d(A)[sp].d(A)[sp].d(A)[sp].d(G)[sp].d(A)[sp].d(T)[sp].d(T)[sp].d([m5C])[sp].d([m5C])[sp].d(A)[sp].[moe]([m5C])p.[moe](T)p.[moe](T)[sp].[moe](T)}$$$$ (last 3' nucleoside missing) | 1.25
15 | RNA1{[moe](G)[sp].[moe](T)p.[moe]([m5C])p.[moe](A)p.[moe]([m5C])[sp].d(A)[sp].d(T)[sp].d(G)[sp].d(A)[sp].d(T)[sp].d(A)[sp].d(T)[sp].d(T)[sp].d(T)[sp].d([m5C])[sp].[moe](A)p.[moe](G)p.[moe](A)[sp].[moe](T)}$$$$ (last 3' nucleoside missing) | 1
16 | RNA1{[moe](G)[sp].[moe](T)p.[moe]([m5C])p.[moe]([m5C])p.[moe](A)[sp].d(A)[sp].d(A)[sp].d(A)[sp].d([m5C])[sp].d(A)[sp].d([m5C])[sp].d(A)[sp].d(G)[sp].d(T)[sp].d(A)[sp].[moe]([m5C])p.[moe](A)p.[moe](A)[sp].[moe]([m5C])}$$$$ (last 3' nucleoside missing) | 1.67
17 | RNA1{[moe](G)[sp].[moe](T)p.[moe]([m5C])p.[moe]([m5C])p.[moe](A)[sp].d(T)[sp].d(T)[sp].d(A)[sp].d([m5C])[sp].d(A)[sp].d(A)[sp].d(A)[sp].d([m5C])[sp].d(A)[sp].d(A)[sp].[moe](G)p.[moe](T)p.[moe](A)[sp].[moe](A)}$$$$ (last 3' nucleoside missing) | 1
18 | RNA1{[moe](G)[sp].[moe]([m5C])p.[moe](A)p.[moe](A)p.[moe](A)[sp].d(G)[sp].d(A)[sp].d(A)[sp].d([m5C])[sp].d(A)[sp].d([m5C])[sp].d([m5C])[sp].d(A)[sp].d(A)[sp].d(T)[sp].[moe](T)p.[moe](T)p.[moe](T)[sp].[moe](T)}$$$$ (last 3' nucleoside missing) | 3
19 | RNA1{[moe](G)[sp].[moe]([m5C])p.[moe](A)p.[moe](A)p.[moe](A)[sp].d([m5C])[sp].d([m5C])[sp].d(A)[sp].d([m5C])[sp].d(T)[sp].d(T)[sp].d([m5C])[sp].d(T)[sp].d(G)[sp].d(T)[sp].[moe](A)p.[moe](G)p.[moe]([m5C])[sp].[moe](T)}$$$$ (last 3' nucleoside missing) | 0
20 | RNA1{[moe](G)[sp].[moe]([m5C])p.[moe](A)p.[moe](A)p.[moe](G)[sp].d(A)[sp].d([m5C])[sp].d(T)[sp].d(T)[sp].d(T)[sp].d(T)[sp].d([m5C])[sp].d(T)[sp].d(T)[sp].d(T)[sp].[moe](G)p.[moe]([m5C])p.[moe](T)[sp].[moe]([m5C])}$$$$ (last 3' nucleoside missing) | 0
21 | RNA1{[moe](G)[sp].[moe]([m5C])p.[moe](A)p.[moe](A)p.[moe]([m5C])[sp].d(A)[sp].d(G)[sp].d(A)[sp].d(T)[sp].d([m5C])[sp].d(T)[sp].d([m5C])[sp].d(T)[sp].d(T)[sp].d(A)[sp].[moe](T)p.[moe](T)p.[moe]([m5C])[sp].[moe](T)}$$$$ (last 3' nucleoside missing) | 0
22 | RNA1{[moe](G)[sp].[moe]([m5C])p.[moe](A)p.[moe](G)p.[moe](A)[sp].d(A)[sp].d(T)[sp].d(A)[sp].d([m5C])[sp].d([m5C])[sp].d(A)[sp].d(A)[sp].d(G)[sp].d(T)[sp].d(T)[sp].[moe](A)p.[moe](G)p.[moe](T)[sp].[moe](A)}$$$$ (last 3' nucleoside missing) | 0.25
23 | RNA1{[moe](G)[sp].[moe]([m5C])p.[moe](A)p.[moe](G)p.[moe](A)[sp].d(A)[sp].d(T)[sp].d([m5C])[sp].d([m5C])[sp].d(A)[sp].d([m5C])[sp].d(A)[sp].d(T)[sp].d(T)[sp].d(G)[sp].[moe](T)p.[moe]([m5C])p.[moe](A)[sp].[moe]([m5C])}$$$$ (last 3' nucleoside missing) | 1.5
24 | RNA1{[moe](G)[sp].[moe]([m5C])p.[moe](A)p.[moe](G)p.[moe](A)[sp].d(T)[sp].d([m5C])[sp].d(A)[sp].d(T)[sp].d(A)[sp].d(T)[sp].d(A)[sp].d([m5C])[sp].d(T)[sp].d(A)[sp].[moe](T)p.[moe](A)p.[moe]([m5C])[sp].[moe](A)}$$$$ (last 3' nucleoside missing) | 0
25 | RNA1{[moe](G)[sp].[moe]([m5C])p.[moe](A)p.[moe](G)p.[moe](T)[sp].d([m5C])[sp].d(A)[sp].d(A)[sp].d(T)[sp].d([m5C])[sp].d(A)[sp].d(A)[sp].d([m5C])[sp].d(T)[sp].d([m5C])[sp].[moe]([m5C])p.[moe](A)p.[moe](A)[sp].[moe]([m5C])}$$$$ (last 3' nucleoside missing) | 0
26 | RNA1{[moe](G)[sp].[moe]([m5C])p.[moe](A)p.[moe](G)p.[moe]([m5C])[sp].d(A)[sp].d(G)[sp].d(G)[sp].d(T)[sp].d(T)[sp].d(T)[sp].d([m5C])[sp].d([m5C])[sp].d(A)[sp].d(T)[sp].[moe](A)p.[moe](A)p.[moe](A)[sp].[moe]([m5C])}$$$$ (last 3' nucleoside missing) | 0

— the OligoGym collection
